What was measured:
C57Bl/6J mice = experiment: Oral glucose tolerance test in mice (with sitagliptin); assay type: in vivo; conditions: glucose 2 g/kg, FIG. 1
Description: C57Bl/6J mice were fasted for 6 hours prior to drug administration. Blood glucose was measured after the 6 hour fast (T30 min), and animals were sorted into groups evenly matched for fasting glucose levels. At T30, drug suspension was administered to the mice by oral gavage. Glucose was administered at TO min at 2 g/kg. The administration volume was 5 mL/kg of body weight. Blood was sampled at TO, prior to glucose administration, then at 15, 30, 60, 90 and 120 min after glucose administration for measurement of glucose by glucometer. 10 mice were used for each dose group. The formulation of 5-Ethyl-2-{4-[4-(4-tetrazol-1-yl-phenoxymethyl)-thiazol-2-yl]-piperidin-1-yl}-pyrimidine and sitagliptin was 1% carboxymethylcellulose, 2% Tween 80 prepared in a manner essentially as described in Example 2. The formulation was a suspension and was continuously stirred during dosing of the animals.
Glucose levels were plotted against time and the incremental area under the curve (AUC) of the glucose excursion was determined from T0 to T120 using GraphPad Prism 5.1. Statistical significance of differences in AUC between compound treatment and vehicle was determined by non-parametric Kruskal-Wallis test with Dunn's post test. […] Statistical differences in the glucose levels at each time point during OGTT were determined by two way ANOVA with Bonferroni's post test. […]

mice = experiment: Incretin secretion of mice, dose response on top of sitagliptin; assay type: in vivo; conditions: increasing dosages (1, 3, 10, 30 and 300 mg/kg) given in addition to sitapliptin at 100 mg/kg, 10 minutes after glucose, FIG. 5a
Description: 5-Ethyl-2-{4-[4-(4-tetrazol-1-yl-phenoxymethyl)-thiazol-2-yl]-piperidin-1-yl}-pyrimidine, sitagliptin, and vildagliptin were prepared as in Examples 1 and 2.
Mice were fasted for 6 h prior to drug administration. Blood glucose was measured after the 6 h fast (T30 min), and animals were sorted into 6 groups evenly matched for fasting glucose levels and body weight. At T30 min, drug suspension as prepared in Example 1 herein, was administered to the mice by oral gavage. All groups were given sitagliptin at 100 mg/kg, and Compound 1 was given at 1, 3, 10, 30 and 300 mg/kg. 100 mg/kg sitagliptin was chosen since this dose is greater than that required to achieve 80% DPP-IV inhibition in mice over the time period evaluated in this study. (Kim et al, 2005). Glucose (2 g/kg) was administered by oral gavage at T0. Animals were anesthetized and blood drawn by terminal cardiac puncture 10 minutes after glucose administration. To address the effects on incretin production, total GIP levels were measured. […] The DPP-IV inhibitor sitagliptin was co-administered to prevent breakdown of active GLP-1 by DPP-IV (Kim et al; 2005). Statistical significance of differences in GLP-1, GIP and glucose levels between compound+sitagliptin treatment and sitagliptin alone was determined by one way ANOVA with Dunnet's post test. Differences with a p value less than 0.05 were considered significant. […]

Row | SMILES | incremental AUC of the glucose excursion T0 to T120 (C57Bl/6J mice; sitagliptin alone at 10 mg/kg oral gavage) | incremental AUC of the glucose excursion T0 to T120 (C57Bl/6J mice; compound only at 30 mg/kg oral gavage) | secretion of active GLP-1 (mice)
1 | N[C@@H](CC(=O)N1CCn2c(nnc2C(F)(F)F)C1)Cc1cc(F)c(F)cc1F [sitagliption, sitagliptin, reference compound] | approximately 2800 mg.min/dl |  | 
2 | CCc1cnc(N2CCC(c3nc(COc4ccc(-n5cnnn5)cc4)cs3)CC2)nc1 [5-Ethyl-2-{4-[4-(4-tetrazol-1-yl-phenoxymethyl)-thiazol-2-yl]-piperidin-1-yl}-pyrimidine] |  | approximately 3200 mg.min/dl | stimulated secretion of active GLP-1

— patent US20090270404A1, “OXYMETHYLENE ARYL COMPOUNDS AND USES THEREOF” (Metabolex, Inc., priority 2008, published 2009)
